Each structure is given as a SMILES string.

Experiment [1] addresses T1, Thromboxane A2 receptor (Homo sapiens) (UniProt P21731).
T1 sequence (whole entry): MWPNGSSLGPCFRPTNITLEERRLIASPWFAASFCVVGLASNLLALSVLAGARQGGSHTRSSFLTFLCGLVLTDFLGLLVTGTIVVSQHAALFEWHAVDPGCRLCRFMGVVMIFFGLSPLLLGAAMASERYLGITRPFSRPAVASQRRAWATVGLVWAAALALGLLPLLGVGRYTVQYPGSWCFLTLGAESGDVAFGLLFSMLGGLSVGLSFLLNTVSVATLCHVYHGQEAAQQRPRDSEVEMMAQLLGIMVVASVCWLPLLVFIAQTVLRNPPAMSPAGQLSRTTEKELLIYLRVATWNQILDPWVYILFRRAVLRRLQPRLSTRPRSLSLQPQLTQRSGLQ
Kind of experiment: Competition factor for Thromboxane A2 (TXA2) / Prostaglandin H2 (PGH2)-receptor was determined by CF=(ID50-test)/(ID50-standard).

Experiment [2] has as its target T1, Thromboxane A2 receptor (Homo sapiens). Kind of experiment: Competition factor for Thromboxane A2 (TXA2) / Prostaglandin H2 (PGH2)-receptor was determined by CF=(ID50-test)/(ID50-standard); agonist. The format is functional.
Experiment [3] shares this target. Kind of experiment: Competition factor for Thromboxane A2 (TXA2) / Prostaglandin H2 (PGH2)-receptor was determined by CF=(ID50-test)/(ID50-standard); not parallel.
Experiment [4] has the same target. Kind of experiment: Competition factor for Thromboxane A2 (TXA2) / Prostaglandin H2 (PGH2)-receptor was determined by CF=(ID50-test)/(ID50-standard); partial agonist. The format is functional.
The target is the same in experiment [5]. Kind of experiment: Competition factor for Thromboxane A2 (TXA2) / Prostaglandin H2 (PGH2)-receptor was determined by CF=(ID50-test)/(ID50-standard); antagonist. The format is functional.

Turning to `Cc1ccc(S(=O)(=O)N[C@@H]2C3CC(c4ccc(-c5ccccc5)cc4)(CO3)[C@H]2C/C=C/CCCC(=O)O)cc1` (some centres not stated), in experiment [1], the CF was found to be 2.

For `Cc1ccc(S(=O)(=O)NC[C@@H]2C3CC(c4ccc(-c5ccccc5)cc4)(CO3)[C@H]2CCCCCC(=O)O)cc1` (some centres not stated), the CF in experiment [1] was determined as 0.1.

The compound `CCCCC[C@H](O)/C=C/[C@H]1C2CC(C)(CO2)[C@@H]1C/C=C/CCCC(=O)O` (some centres not stated) returned a CF in experiment [2] of 320.

Compound `O=C(O)CCCCCC[C@H]1[C@H](CNS(=O)(=O)c2ccc(Cl)cc2)C2CC1(c1ccc(-c3ccccc3)cc1)CO2` (some centres not stated) showed a CF in experiment [1] of 1.4.

With `O=C(O)CCC/C=C/C[C@H]1[C@H](/C=N/Oc2ccc(F)cc2)C2CC1(c1ccc(-c3ccccc3)cc1)CO2` (some centres not stated), the CF in experiment [1] was 16.

`O=C(O)CCC/C=C/C[C@@H]1[C@@H](COCc2ccccc2)C2CC1(CCc1ccccc1)CO2` (some centres not stated) had a CF in experiment [2] of 750.

The compound `O=C(O)CC/C=C\C[C@H]1[C@H](CNS(=O)(=O)c2ccc(Cl)cc2)C2CC1(c1ccc(-c3ccccc3)cc1)CO2` (some centres not stated) yielded a CF in experiment [3] of 0.1.

Compound `O=C(O)CCC/C=C\C[C@H]1[C@H](CNS(=O)(=O)c2ccc(Cl)cc2)C2CC1(c1ccc(-c3ccccc3)cc1)CO2` (some centres not stated) displayed a CF in experiment [3] of 0.4.

For the compound `O=C(O)CCC/C=C/C[C@H]1[C@H](COCc2ccccc2)C2CC1(C#Cc1ccccc1)CO2` (some centres not stated), the CF in experiment [1] was determined as 12.

For `CCC#CC[C@H](C)[C@H](O)C#C[C@@H]1C2CC(c3ccc(-c4ccccc4)cc3)(CO2)[C@H]1C/C=C/CCCC(=O)O` (some centres not stated), in experiment [4], the CF turned out to be 12.

As to `CCC#CC[C@H](C)[C@H](O)/C=C/[C@@H]1C2CC(c3ccc(F)cc3)(CO2)[C@H]1C/C=C/CCCC(=O)O` (some centres not stated), the CF in experiment [1] worked out at 26.

Take `Cc1ccc(S(=O)(=O)N[C@@H]2C3CC(c4ccc(O)cc4)(CO3)[C@H]2C/C=C/CCCC(=O)O)cc1` (some centres not stated): the CF in experiment [1] was 520.

Take `O=C(O)CCC/C=C/C[C@@H]1[C@@H](COCc2ccccc2)C2CC1(C#Cc1ccccc1)CO2` (stereo in doubt): the CF in experiment [1] worked out at 30.

`CC12COC(C1)[C@H](COCc1ccccc1)[C@H]2C/C=C/CCCC(=O)O` (some centres not stated) registered a CF in experiment [1] greater than 1000.

`CCCC#CC12COC(C1)[C@H](COCc1ccccc1)[C@H]2C/C=C/CCCC(=O)O` (some centres not stated) yielded a CF in experiment [1] of 90.

On to `O=C(O)CCC/C=C/C[C@@H]1[C@@H](COCc2ccccc2)C2CC1(c1ccccc1)CO2` (some centres not stated), for which the CF in experiment [1] and in experiment [5] was 300 throughout.

In experiment [1], `O=C(O)CCC/C=C/C[C@@H]1[C@@H](COCc2ccccc2)C2CC1(c1ccc(F)cc1)CO2` (some centres not stated) gave a CF of 125.

On to `O=C(O)CCCCC[C@H]1[C@H](CNS(=O)(=O)c2ccc(F)cc2)C2CC1(c1ccc(-c3ccccc3)cc1)CO2` (some centres not stated), for which, in experiment [1], the CF is 0.1.

For `O=C(O)CCC/C=C/C[C@H]1[C@H](/C=N/Oc2ccc(F)cc2)C2CC1(c1ccc(F)cc1)CO2` (some centres not stated), in experiment [1], the CF is 16.

For the compound `O=C(O)CCC/C=C/C[C@@H]1[C@@H](COCc2ccccc2)C2CC1(Cc1ccc(-c3ccccc3)cc1)CO2` (some centres not stated), the CF in experiment [1] came out at 800.

With `O=C(O)CCC/C=C/C[C@H]1[C@H](NS(=O)(=O)c2ccc(F)cc2)C2CC1(c1ccc(F)cc1)CO2` (some centres not stated), in experiment [1], the CF worked out at 120.

On to `O=C(O)CCCCC[C@H]1[C@H](CNS(=O)(=O)c2ccc(Cl)cc2)C2CC1(c1ccc(-c3ccccc3)cc1)CO2` (some centres not stated), for which the CF in experiment [3] is 0.3.

Regarding `O=C(O)CCCCC[C@H]1[C@H](CNS(=O)(=O)c2ccc(Cl)c(Cl)c2)C2CC1(c1ccc(-c3ccccc3)cc1)CO2` (some centres not stated), the CF in experiment [1] was found to be 5; in experiment [3] it was 6.

With `O=C(O)CCCCCC[C@H]1[C@H](CNS(=O)(=O)c2ccc(Cl)c(Cl)c2)C2CC1(c1ccc(-c3ccccc3)cc1)CO2` (some centres not stated), in experiment [1], the CF is 12.

In turn, `O=C(O)CCC/C=C/C[C@H]1[C@H](/C=N/Oc2ccc(F)cc2)C2CC1(c1cccc(F)c1)CO2` (some centres not stated) showed a CF in experiment [1] of 10.

In experiment [1], `Cc1ccc(S(=O)(=O)N[C@@H]2C3CC(c4cccc(F)c4)(CO3)[C@H]2C/C=C/CCCC(=O)O)cc1` (some centres not stated) showed a CF of 120.

`O=C(O)CCC/C=C/C[C@H]1C2COC(C2)[C@@H]1COCc1ccccc1` (some centres not stated): the CF in experiment [1] is greater than 1000.

`O=C(O)CCC/C=C/C[C@H]1[C@H](NS(=O)(=O)c2ccc(F)cc2)C2CC1(c1ccc(O)cc1)CO2` (some centres not stated) showed a CF in experiment [1] of 30.

In the case of `O=C(O)CCC/C=C/C[C@H]1[C@H](COCc2ccccc2)C2CC1(c1ccc(F)cc1)CO2` (some centres not stated), in experiment [1], the CF worked out at 60.

Take `CCCCC[C@H](O)/C=C/[C@H]1C2CC(Cc3ccccc3)(CO2)[C@@H]1C/C=C/CCCC(=O)O` (some centres not stated): the CF in experiment [1] came to 250.

In experiment [1], `O=C(O)CC/C=C\C[C@H]1[C@H](CNS(=O)(=O)c2ccc(F)cc2)C2CC1(c1ccc(-c3ccccc3)cc1)CO2` (some centres not stated) came in with a CF of 0.05.

The compound `O=C(O)CCC/C=C/C[C@@H]1[C@@H](COCc2ccccc2)C2CC1(Cc1ccccc1)CO2` (some centres not stated) came in with a CF in experiment [1] of 300.

In experiment [1], `CCCCC[C@H](O)/C=C/[C@H]1C2CC(c3ccc(F)cc3)(CO2)[C@@H]1C/C=C/CCCC(=O)O` (some centres not stated) displayed a CF of 650.

Take `CCC#CC[C@H](C)[C@H](O)C#C[C@@H]1C2CC(c3ccc(F)cc3)(CO2)[C@H]1C/C=C/CCCC(=O)O` (some centres not stated): the CF in experiment [1] is 4.

For `CCCCC[C@H](O)/C=C/[C@H]1C2CC(CCc3ccccc3)(CO2)[C@@H]1C/C=C/CCCC(=O)O` (some centres not stated), in experiment [1], the CF is 420.

In experiment [3], `Cc1ccc(S(=O)(=O)NC[C@@H]2C3CC(c4ccc(-c5ccccc5)cc4)(CO3)[C@H]2CC=CCCCC(=O)O)cc1` (some centres not stated) returned a CF of 4.

Compound `O=C(O)CCC/C=C/C[C@@H]1[C@@H](/C=C/[C@@H](O)COc2ccc(F)cc2)C2CC1(c1ccc(F)cc1)CO2` (some centres not stated) came in with a CF in experiment [1] of 375.

Consider `Cc1ccc(S(=O)(=O)NC[C@@H]2C3CC(c4ccc(-c5ccccc5)cc4)(CO3)[C@H]2C/C=C\CCC(=O)O)cc1` (some centres not stated), for which, in experiment [1], the CF is 0.05.

With `CCCCC[C@H](O)/C=C/[C@@H]1C2CC(c3ccc(F)cc3)(CO2)[C@H]1C/C=C/CCCC(=O)O` (some centres not stated), the CF in experiment [1] is 25.

In turn, `N#Cc1ccc(COC[C@@H]2C3CC(c4ccc(F)cc4)(CO3)[C@H]2C/C=C/CCCC(=O)O)cc1` (some centres not stated) had a CF in experiment [4] of 6.

For `O=C(O)CCC/C=C/C[C@H]1[C@H](NS(=O)(=O)c2ccc(F)cc2)C2CC1(c1cccc(F)c1)CO2` (some centres not stated), the CF in experiment [1] came to 250.

Turning to `O=C(O)CCC/C=C/C[C@H]1[C@H](NS(=O)(=O)c2ccc(F)cc2)C2CC1(c1ccc(-c3ccccc3)cc1)CO2` (some centres not stated), the CF in experiment [1] came to 2.

For `O=C(O)CCC/C=C/C[C@H]1[C@H](/C=C/[C@@H](O)COc2ccc(F)cc2)C2CC1(c1ccc(F)cc1)CO2` (some centres not stated), in experiment [4], the CF is 2.

In experiment [1], `N#Cc1ccc(COC[C@H]2C3CC(c4ccc(F)cc4)(CO3)[C@@H]2C/C=C/CCCC(=O)O)cc1` (some centres not stated) came in with a CF of 900.

Turning to `CCC#CC[C@H](C)[C@H](O)/C=C/[C@@H]1C2CC(c3ccc(-c4ccccc4)cc3)(CO2)[C@H]1C/C=C/CCCC(=O)O` (some centres not stated), the CF in experiment [4] was 20.

In turn, `O=C(O)CCC/C=C\C[C@H]1[C@H](CNS(=O)(=O)c2ccc(Cl)c(Cl)c2)C2CC1(c1ccc(-c3ccccc3)cc1)CO2` (some centres not stated) came in with a CF in experiment [3] of 4.2.

`O=C(O)CCC/C=C/C[C@H]1[C@H](COCc2ccccc2)C2CC1(c1ccccc1)CO2` (some centres not stated) yielded a CF in experiment [1] of 60.

Compound `O=C(O)CCC/C=C/C[C@@H]1[C@@H](COCc2ccccc2)C2CC1(C#Cc1ccccc1)CO2` (stereo in doubt; 8a) came in with a CF in experiment [1] of 30.

Consider `CCCCC[C@H](O)/C=C/[C@H]1C2CC(CO2)[C@@H]1CC=CCCCC(=O)O` (some centres not stated), for which the CF in experiment [2] is 36.

`Cc1ccc(S(=O)(=O)N[C@@H]2C3CC(c4ccc(F)cc4)(CO3)[C@H]2C/C=C/CCCC(=O)O)cc1` (some centres not stated) yielded a CF in experiment [1] of 170.
